How the values were obtained:
[1] = tested on: participants with episodic migraine; assay: Study B: AIM-D PDA and PI domain scores over 52 weeks; assay type: in vivo, human; conditions: atogepant 60 mg, mITT Population
Excerpt: The Activity in Migraine Diary (AIM-D) evaluates the impact of migraine on the performance of daily activities and physical impairment using an electronic daily diary. In particular, the AIM-D is comprised of two domains that evaluate Performance of Daily Activities (PDA) and Physical Impairment (PI). Assessed items for the AIM-D PDA domain include household chores, errands, leisure activities at home, social or leisure activities outside the home, strenuous physical activities, concentration, and thinking clearly. Assessed items for the AIM-D PI Domain include walking, moving one's body, bending forward, and moving one's head. Response options for each item range from “not difficult at all” to “I could not do it at all” on a 6-point rating scale. The AIM-D domain scores are scaled from 0-100, with higher scores indicating greater impact of migraine, and reductions from baseline in scores indicate improvement. See Cala et al., The Activity Impairment in Migraine-Diary (AIM-D): A Novel Migraine-Specific Patient-Reported Outcome Measure to Assess Functioning Based on Activity Impairment in Episodic and Chronic Migraine Patients, MTIS2018-005 (Sep. 5, 2018).
The negative change scores with confidence intervals that exclude 0 indicate a significant reduction in impairment due to migraine in PDA and PI.
Change scores with confidence intervals excluding zero were present at each time point assessed, indicating significant reduction in impairment due to migraine during the 52-week trial.

[2] = tested on: participants with episodic migraine; assay: Study B: MSQ v2.1 domain score over 52 weeks; assay type: in vivo, human; conditions: Role Function-Restrictive (RFR) domain, atogepant 60 mg, mITT Population
Excerpt: The Migraine-Specific Quality of Life Questionnaire Version 2.1 is one of the most frequently utilized disease-specific tools assessing the impact of migraine on HRQL. The MSQ is a validated tool that assess the impact of migraine on function (i.e., daily social and work-related activities) over the past 4 weeks across three dimensions: Role Function-Restrictive (RR, or “RFR”, relating to how migraines limit the patient's daily social and work related activities), Role Function-Preventive (RP, e.g., how migraines prevent the patient's daily social and work related activities), and Emotional Function (EF, e.g., the emotions associated with a patient's migraines). Patients respond to items using a 6-point scale: “none of the time,” “a little bit of the time,” “some of the time”, “a good bit of the time,” “most of the time” and “all of the time,” which are assigned scores of 1 to 6, respectively. Raw dimension scores are computed as a sum of item responses and rescaled from a 0 to 100 scale such that higher scores indicate better quality of life. See Bagley et al., Validating Migraine-Specific Quality of Life Questionnaire v2.1 in Episodic and Chronic Migraine, Headache, 2012 March; 52 (3): 409-21.
The Migraine-Specific Quality of Life Questionnaire version 2.1 (MSQv2.1) Role Function-Restrictive (RFR) domain least squares (LS) mean (standard error [SE]) at baseline was 48.1 (20.26) and LS mean changes from baseline throughout the trial are shown in FIG. 17 and in Table 32. Findings indicated rapid improvement over the first 12 weeks and sustained improvement from 12 to 52 weeks, and non-zero confidence intervals throughout indicate significant improvement at each timepoint assessed.

Compound: C[C@@H]1[C@H](c2c(F)ccc(F)c2F)C[C@H](NC(=O)c2cnc3c(c2)C[C@@]2(C3)C(=O)Nc3ncccc32)C(=O)N1CC(F)(F)F [atogepant]
- Change from Baseline in AIM-D Monthly PDA Domain Score, LS Mean Δ from baseline ([1]; Weeks 1-4, MMRM): −7.61
- Change from Baseline in AIM-D Monthly PI Domain Score, LS Mean Δ from baseline ([1]; Weeks 1-4, MMRM): −5.56
- Change from Baseline in AIM-D Monthly PDA Domain Score, LS Mean Δ from baseline ([1]; Weeks 5-8): −8.16
- Change from Baseline in AIM-D Monthly PI Domain Score, LS Mean Δ from baseline ([1]; Weeks 5-8): −5.82
- Change from Baseline in AIM-D Monthly PDA Domain Score, LS Mean Δ from baseline ([1]; Weeks 9-12): −8.53
- Change from Baseline in AIM-D Monthly PI Domain Score, LS Mean Δ from baseline ([1]; Weeks 9-12): −6.13
- Change from Baseline in AIM-D Monthly PDA Domain Score, LS Mean Δ from baseline ([1]; Weeks 13-16): −8.66
- Change from Baseline in AIM-D Monthly PI Domain Score, LS Mean Δ from baseline ([1]; Weeks 13-16): −6.22
- Change from Baseline in AIM-D Monthly PDA Domain Score, LS Mean Δ from baseline ([1]; Weeks 17-20): −9.02
- Change from Baseline in AIM-D Monthly PI Domain Score, LS Mean Δ from baseline ([1]; Weeks 17-20): −6.38
- Change from Baseline in AIM-D Monthly PDA Domain Score, LS Mean Δ from baseline ([1]; Weeks 21-24): −9.11
- Change from Baseline in AIM-D Monthly PI Domain Score, LS Mean Δ from baseline ([1]; Weeks 21-24): −6.43
- Change from Baseline in AIM-D Monthly PDA Domain Score, LS Mean Δ from baseline ([1]; Weeks 25-28): −9.16
- Change from Baseline in AIM-D Monthly PI Domain Score, LS Mean Δ from baseline ([1]; Weeks 25-28): −6.40
- Change from Baseline in AIM-D Monthly PDA Domain Score, LS Mean Δ from baseline ([1]; Weeks 29-32): −9.22
- Change from Baseline in AIM-D Monthly PI Domain Score, LS Mean Δ from baseline ([1]; Weeks 29-32): −6.51
- Change from Baseline in AIM-D Monthly PDA Domain Score, LS Mean Δ from baseline ([1]; Weeks 33-36): −9.61
- Change from Baseline in AIM-D Monthly PI Domain Score, LS Mean Δ from baseline ([1]; Weeks 33-36): −6.94
- Change from Baseline in AIM-D Monthly PDA Domain Score, LS Mean Δ from baseline ([1]; Weeks 37-40): −9.61
- Change from Baseline in AIM-D Monthly PI Domain Score, LS Mean Δ from baseline ([1]; Weeks 37-40): −6.93
- Change from Baseline in AIM-D Monthly PDA Domain Score, LS Mean Δ from baseline ([1]; Weeks 41-44): −9.77
- Change from Baseline in AIM-D Monthly PI Domain Score, LS Mean Δ from baseline ([1]; Weeks 41-44): −7.01
- Change from Baseline in AIM-D Monthly PDA Domain Score, LS Mean Δ from baseline ([1]; Weeks 45-48): −9.79
- Change from Baseline in AIM-D Monthly PI Domain Score, LS Mean Δ from baseline ([1]; Weeks 45-48): −7.02
- Change from Baseline in AIM-D Monthly PDA Domain Score, LS Mean Δ from baseline ([1]; Weeks 49-52, MMRM): −10.17
- Change from Baseline in AIM-D Monthly PI Domain Score, LS Mean Δ from baseline ([1]; Weeks 49-52, MMRM): −7.20
- Change from Baseline in MSQ v2.1 Domain Score, LS Mean Δ from baseline ([2]; Week 12): 30.02
- Change from Baseline in MSQ v2.1 Domain Score, LS Mean Δ from baseline ([2]; Week 24): 30.79
- Change from Baseline in MSQ v2.1 Domain Score, LS Mean Δ from baseline ([2]; Week 36): 32.34
- Change from Baseline in MSQ v2.1 Domain Score, LS Mean Δ from baseline ([2]; Week 48): 34.32
- Change from Baseline in MSQ v2.1 Domain Score, LS Mean Δ from baseline ([2]; Week 52): 34.70
